A word on the Kd: it is the constant that tells how readily two partners part at equilibrium. Low readings indicate tighter binding, high ones weaker binding.

This passage reports Kd results from paper PMC13112672, “The Drp1-CoQ10-Coa6-ETC axis represents a therapeutic potential for working memory impairment caused by neuronal mitochondrial dysfunction” (Translational Neurodegeneration, 2026).

The target of this assay is T1, Coa6 (cytochrome c oxidase assembly factor 6) (Mus musculus, UniProt Q8BGD8).
T1 construct: E. coli BL21(DE3); Ni-bead purification (vector His tag, removal not mentioned)
T1 sequence (Q8BGD8 1-79): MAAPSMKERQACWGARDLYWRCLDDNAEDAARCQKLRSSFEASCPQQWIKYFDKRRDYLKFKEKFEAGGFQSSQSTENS
As to the kind of experiment: surface plasmon resonance (CM5 chip, immobilised Coa6). It is filed as binding. As to conditions: analyte 0.39–25 μM CoQ10; protein amine-coupled, ~12,600 RU. (Surface plasmon resonance follows binding to a sensor surface in real time, without labels.)

For `COC1=C(OC)C(=O)C(C/C=C(\C)CC/C=C(\C)CC/C=C(\C)CC/C=C(\C)CC/C=C(\C)CC/C=C(\C)CC/C=C(\C)CC/C=C(\C)CC/C=C(\C)CCC=C(C)C)=C(C)C1=O` [CoQ10], the affinity, expressed as Kd, was 24 µM.
